Measured values from patent US9623108B2, “Formulation for oral administration with beneficial effects on the cardiovascular system” (ROTTAPHARM S.p.A., priority 2006, dated 2017).

Tests used:
[1] = molecular target: T1, HMG-CoA-r (Homo sapiens, UniProt P04035); details: competition with HMG-CoA at HMG-CoA-r; cited from earlier work
T1 sequence (P04035 1-888): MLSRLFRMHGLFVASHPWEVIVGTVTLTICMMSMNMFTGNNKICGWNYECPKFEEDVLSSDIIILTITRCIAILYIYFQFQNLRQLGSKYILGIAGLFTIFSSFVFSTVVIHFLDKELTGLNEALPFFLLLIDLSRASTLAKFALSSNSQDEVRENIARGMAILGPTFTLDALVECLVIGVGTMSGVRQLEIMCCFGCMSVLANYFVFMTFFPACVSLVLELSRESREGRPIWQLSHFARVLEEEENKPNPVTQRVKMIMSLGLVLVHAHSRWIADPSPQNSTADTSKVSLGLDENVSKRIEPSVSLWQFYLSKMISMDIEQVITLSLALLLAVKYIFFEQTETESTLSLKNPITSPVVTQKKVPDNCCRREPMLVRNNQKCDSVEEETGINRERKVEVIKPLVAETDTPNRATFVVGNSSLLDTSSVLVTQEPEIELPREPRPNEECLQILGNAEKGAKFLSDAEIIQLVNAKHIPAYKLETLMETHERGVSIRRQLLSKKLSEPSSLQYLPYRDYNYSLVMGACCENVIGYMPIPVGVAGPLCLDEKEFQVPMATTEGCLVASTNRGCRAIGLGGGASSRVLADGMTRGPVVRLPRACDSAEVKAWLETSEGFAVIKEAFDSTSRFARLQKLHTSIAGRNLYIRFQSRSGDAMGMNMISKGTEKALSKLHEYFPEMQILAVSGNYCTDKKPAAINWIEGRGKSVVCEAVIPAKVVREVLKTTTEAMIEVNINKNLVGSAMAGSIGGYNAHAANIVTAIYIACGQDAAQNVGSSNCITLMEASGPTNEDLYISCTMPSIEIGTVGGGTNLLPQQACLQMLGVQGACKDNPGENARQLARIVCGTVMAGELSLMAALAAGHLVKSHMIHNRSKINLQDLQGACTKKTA

[2] = NOAEL, doses repeated daily in an animal; type: in vivo; details: equivalent of the animal NOAEL in humans
[3] = tested on: hypercholesterolaemic patients; details: berberine 500 mg b.i.d.; cited from earlier work
[4] = tested on: rabbits rendered hypercholesterolaemic and hypertriglyceridaemic; assay: Rabbits rendered hypercholesterolaemic and hypertriglyceridaemic with atherogenic feed, 3 months treatment, blood lipid analyses; type: in vivo, New Zealand White rabbits
Protocol: The action of the active principles, according to the composition of COMB, was tested and evaluated experimentally on rabbits rendered hypercholesterolaemic and hypertriglyceridaemic with a diet with added cholesterol, powdered egg yolk and lard. Note: all the daily doses used in the treatment groups, described in the experimental section, are about 4 times higher than those stated in the examples of formulation described in a later section. An exception is the group treated with berberine 100 mg/kg, for which the dose of active principle corresponds to about 13 times that contained in the examples of formulations intended for oral administration in humans. […] The difference in posology between animals and humans is perfectly normal in pharmacology, because it is well known that the pathologies induced experimentally in animals are always dramatically and unnaturally more severe than those that occur spontaneously in humans. New Zealand White rabbits of 6-8 weeks and with body weight of 1.8-2.0 kg. The following feeds, in pellets, were provided at a ration of 150 g of feed per day. Water was available ad libitum. ATER: Atherogenic feed, i.e. standard feed for guinea pigs and rabbits according to Sherman, in pellets (Laboratorio Dottori […].) with addition of 10% powdered egg yolk, 10% lard and 1% cholesterol according to Kong et al. [2004]. The substances under investigation were administered by stomach tube, once a day, suspended in 2 ml/kg of carboxymethylcellulose 0.2% (CMC). All the animals were acclimatized in the living quarters at 25±2° C. and relative humidity 55-65%. After 1 week, blood samples were taken in order to obtain the baseline data. The animals were then randomized to the following treatment groups of 10 rabbits each. AT: Controls with feed ATER and with daily administration of 2 ml/kg of CMC by stomach tube. Ber30: Feed AT, with daily administration of berberine 30 mg/kg in 2 ml/kg of CMC, by stomach tube. Ber100: Feed AT, with daily administration of berberine 100 mg/kg in 2 ml/kg of CMC, by stomach tube. Ass (reference association (combination) for lowering blood lipid level): Feed AT, with daily administration of Ass in 2 ml/kg of CMC, by stomach tube. COMB: Feed AT, with daily administration of Ass with addition of 30 mg/kg of berberine in 2 ml/kg of CMC, by stomach tube. The treatments were continued for 3 months. […] These analyses were carried out with suitably validated, conventional laboratory methods. A descriptive statistical analysis was performed using conventional methods of calculation.

[5] = tested on: patients who had hypercholesterolaemia and hypertriglyceridaemia; details: 500 mg berberine in a single dose once a day; cited from earlier work
[6] = berberine 30 mg/kg/d by stomach tube, not statistically significant
[7] = berberine 100 mg/kg/d by stomach tube, p<0.001

SMILES: CC[C@H](C)C(=O)O[C@H]1C[C@@H](C)C=C2C=C[C@H](C)[C@H](CC[C@@H]3C[C@@H](O)CC(=O)O3)[C@H]21 [Monacoline K]
- activity for the enzyme relative to the natural substrate HMG-CoA [1]: 2000 times

SMILES: CC1=C(/C=C/C(C)=C/C=C/C(C)=C/C=C/C=C(C)/C=C/C=C(C)/C=C/C2=C(C)C(=O)[C@@H](O)CC2(C)C)C(C)(C)C[C@H](O)C1=O [Ast, 3,3′-dihydroxy-β,β′-carotene-4,4′-dione]
- NOAEL equivalent in humans [2]: more than 80 g

SMILES: COc1ccc2cc3[n+](cc2c1OC)CCc1cc2c(cc1-3)OCO2 [berberine, 5,6-dihydro-9,10-dimethoxybenzo[g]-1,3-benzodioxolo[5,6-a]quinolizinium]
- hepatic transaminases [3]: decrease in hepatic transaminases
- increase in HDL ([4]; berberine 30 mg/kg/d): 0.48 mmol/L
- reduction of the increase in LDL caused by AT [4, 6]: 13%
- reduction of the increase in total cholesterol (CT) caused by AT [4, 6]: 15%
- reduction of the increase in blood triglycerides (TG) caused by AT ([4]; berberine 30 mg/kg/d by stomach tube, p<0.01): 43%
- increase in HDL ([4]; berberine 100 mg/kg/d): 0.53 mmol/L
- reduction of the increase in LDL caused by AT [4, 7]: 89%
- reduction of the increase in blood triglycerides (TG) caused by AT [4, 7]: 66%
- reduction of the increase in total cholesterol (CT) caused by AT [4, 7]: 87%
- hepatic transaminases [5]: improved
- tolerability of the treatment [5]: well tolerated
